Experimental data: US20220259212A1, “INHIBITORS OF INDOLEAMINE 2,3-DIOXYGENASE AND/OR TRYPTOPHAN 2,3-DIOXYGENASE” (Idorsia Pharmaceuticals Ltd, priority 2019, published 2022)

Columns and labels:
IDO1 in SKOV3 cells = target: T1, IDO1 in SKOV3 cells (Homo sapiens, UniProt P14902); assay: Cell-based IDO inhibitory activity in IFNγ-stimulated SKOV3 cells (NFK + kynurenine by LCMS); conditions: IFNγ 50 ng/ml, 200 uM L-tryptophan, 24 hours
T1 construct: SKOV3 cells (NCI, No. 0503405) which upregulate IDO1 after stimulation with IFNγ; host or cells: SKOV3 cells stimulated with IFNγ
Source text: 3) Testing Compounds for IDO/TDO Inhibitory Activity and Toxicity in Cell-Based Assays
SW48 cells (ATCC, CCL-231) are used to measure compounds for TDO inhibitory activity and are routinely maintained in DMEM high glucose/GlutaMAX™/pyruvate 90% (v/v), FCS 10% (v/v), Penicilin/streptomycin 1% (v/v). SKOV3 cells (NCI, No. 0503405) which upregulate IDO1 after stimulation with IFNγ are used to measure compounds for IDO inhibitory activity. SKOV3 cells are routinely maintained in RPMI 90% (v/v), FCS 10% (v/v), Penicilin/streptomycin 1% (v/v). SW48 or SKOV3 cells are seeded in 384 well plates at a density of 8000 cells in 45 ul per well or 4000 cells in 45 ul per well, respectively. Plates are incubated at 37° C./5% CO2 for 24 hours. On the next day, 10 ul compound in serial dilutions (tested concentration range 10 uM-40 nM) and 200 uM L-tryptophan are added (SKV03 receive in addition IFNγ at a final concentration of 50 ng/ml). After 24 hours of incubation at 37° C./5% CO2, 3 ul of the supernatant per well is transferred to 25 ul H2O per well in a 384 deep well plate and 25 ul of the supernatant per well is transferred to waste. The SKOV3 and SW48 cell plates with 25 ul supernatant per well remaining are used to measure viability (see below). The 384 deep well plate containing 3 ul supernatant and 25 ul H2O per well are further processed for LCMS: After the addition of 100 ul L-tryptophan-(indole-d5) (Sigma 615862) at 200 nM in methanol, the 384 deep well plates are centrifuged for 10 minutes at 3220×g at 4° C., 75 ul H2O is added per well and plates centrifuged again for 10 minutes at 3220×g at 4° C. N-formylkynurenine and kynurenine are quantified by LCMS, normalized to the internal standard L-tryptophan-(indole-d5) and the sum is calculated. Samples with 0.2% DMSO (0% effect) and a TDO/IDO inhibitor (100% effect) are used as control samples to set the parameters for the non-linear regression necessary for the determination of the IC50 for each compound. For each compound concentration the percentage of activity compared to 0% and 100% effect is calculated as average±STDEV (each concentration measured in duplicate). IC50 values and curves are generated with XLfit software (IDBS) using Dose-Response One Site model 203. The calculated IC50 values may fluctuate depending on the daily cellular assay performance. Fluctuations of this kind are known to those skilled in the art. When compounds are measured multiple times, mean values are given.

[1] = target: T2, Recombinant full-length human IDO1 (Homo sapiens, UniProt P14902); assay: IDO1 enzymatic assay (NFK quantified by LCMS); format: biochemical; conditions: 2 nM enzyme, 5 μM L-tryptophan, 30 min pre-incubation, pH6.5; mean if measured multiple times; read-out: hIDO activity (IC50 in nM)
T2 construct: Recombinant full-length human IDO1 with a N-terminal hexahistidine tag; hexahistidine (N); made in house; host or cells: E. coli
Experimental: 1) Testing Compounds for IDO Inhibitory Activity in an IDO1 Enzymatic Assay:
Recombinant full-length human IDO1 with a N-terminal hexahistidine tag expressed in E. coli and purified to homogeneity is incubated at a final concentration of 2 nM in assay buffer consisting of 37.5 mM phosphate buffer at pH6.5 supplemented with 10 mM ascorbic acid, 0.45 μM methylene blue, 50 U/ml catalase, 0.01% BSA, and 0.01% Tween 20 (protocol modified from Seegers et al, JBS 2014). Example compounds are serially diluted in DMSO, further diluted in phosphate buffer, and added to the enzyme at final concentrations ranging from 10 μM to 0.5 nM. The final DMSO concentration is 0.6%. Following a pre-incubation of 30 minutes at RT, the reaction is started by the addition of L-tryptophan at a final concentration of 5 μM in assay buffer. After 30 minutes of incubation at RT, 3 μL of the 20 μl reaction mixture are transferred to a 384 deep well plate containing 25 μL of deionized water. 100 μl of 200 nM L-Tryptophan-(indole-d5) in cold 100% methanol are added followed by a 10 minutes centrifugation at 3220×g at 4° C. An additional 75 μL of deionized water are then added followed by a 10 minutes centrifugation at 3220×g at 4° C. The product of the reaction N′-Formylkynurenine (NFK) is quantified by LCMS and normalized to the L-Tryptophan-(indole-d5) signal. Samples with 0.6% DMSO (0% effect) and a TDO/IDO inhibitor (100% effect) are used as control samples to set the parameters for the non-linear regression necessary for the determination of the half-maximal inhibitory concentration (IC50) for each compound. For each compound concentration the percentage of activity compared to 0% and 100% effect is calculated as average±STDEV (each concentration measured in duplicate). IC50 values and curves are generated with XLfit software (IDBS) using Dose-Response One Site model 203 (four parameter logistic curve model). The calculated IC50 values may fluctuate depending on the daily assay performance. Fluctuations of this kind are known to those skilled in the art. When compounds are measured multiple times, mean values are given.

[2] = target: T3, Recombinant human TDO comprising amino acids 19-407 (Homo sapiens, UniProt P48775); assay: TDO2 enzymatic assay (NFK quantified by LCMS); format: biochemical; conditions: 15 nM enzyme, 200 μM L-tryptophan, 30 min pre-incubation, pH7; mean if measured multiple times; read-out: hTDO activity (IC50 in nM)
T3 construct: human TDO comprising amino acids 19-407; hexahistidine (N); made in house; host or cells: E. coli
Experimental: 2) Testing Compounds for TDO Inhibitory Activity in a TDO2 Enzymatic Assay:
Recombinant human TDO comprising amino acids 19-407 with a N-terminal hexahistidine tag expressed in E. coli and purified to homogeneity is incubated at a final concentration of 15 nM in assay buffer consisting of 75 mM phosphate buffer at pH7 supplemented with 100 μM ascorbic acid, 50 U/ml Catalase, 0.01% BSA, and 0.01% Tween 20 (protocol modified from Seegers et al, JBS 2014). Example compounds are serially diluted in DMSO, further diluted in phosphate buffer, and added to the reaction mixture at final concentrations ranging from 10 μM to 0.5 nM. The final DMSO concentration is 0.6%. Following a pre-incubation of 30 minutes at RT, the reaction is started by the addition of L-tryptophan at a final concentration of 200 μM in assay buffer. After 30 minutes of incubation at RT, 3 μL of the reaction mixture are transferred to a 384 deep well plate containing 25 μL of deionized water. 100 μl of 200 nM L-Tryptophan-(indole-d5) in cold 100% methanol are added followed by a 10 minutes centrifugation at 3220×g at 4° C. An additional 75 μL of deionized water are then added followed by a 10 minutes centrifugation at 3220×g at 4° C. The product of the reaction N′-Formylkynurenine (NFK) is quantified by LCMS and normalized to the L-Tryptophan-(indole-d5) signal. Samples with 0.6% DMSO (0% effect) and a TDO/IDO inhibitor (100% effect) are used as control samples to set the parameters for the non-linear regression necessary for the determination of the half-maximal inhibitory concentration (IC50) for each compound. For each compound concentration the percentage of activity compared to 0% and 100% effect is calculated as average±STDEV (each concentration measured in duplicate). IC50 values and curves are generated with XLfit software (IDBS) using Dose-Response One Site model 203 (four parameter logistic curve model). The calculated IC50 values may fluctuate depending on the daily assay performance. Fluctuations of this kind are known to those skilled in the art. When compounds are measured multiple times, mean values are given.

T2 sequence (P14902 whole entry): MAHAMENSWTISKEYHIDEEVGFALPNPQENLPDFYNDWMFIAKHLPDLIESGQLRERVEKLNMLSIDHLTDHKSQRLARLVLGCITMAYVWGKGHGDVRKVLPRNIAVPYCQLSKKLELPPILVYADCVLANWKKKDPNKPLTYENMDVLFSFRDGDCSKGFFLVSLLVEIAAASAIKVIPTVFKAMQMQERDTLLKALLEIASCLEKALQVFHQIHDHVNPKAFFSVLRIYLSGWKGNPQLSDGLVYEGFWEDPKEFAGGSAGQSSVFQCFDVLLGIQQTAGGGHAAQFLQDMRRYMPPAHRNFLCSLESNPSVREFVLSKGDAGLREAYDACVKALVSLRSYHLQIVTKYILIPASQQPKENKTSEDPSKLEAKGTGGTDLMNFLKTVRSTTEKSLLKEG
T1 sequence (P14902 whole entry): as above
T3 sequence (P48775 19-406 limits assumed): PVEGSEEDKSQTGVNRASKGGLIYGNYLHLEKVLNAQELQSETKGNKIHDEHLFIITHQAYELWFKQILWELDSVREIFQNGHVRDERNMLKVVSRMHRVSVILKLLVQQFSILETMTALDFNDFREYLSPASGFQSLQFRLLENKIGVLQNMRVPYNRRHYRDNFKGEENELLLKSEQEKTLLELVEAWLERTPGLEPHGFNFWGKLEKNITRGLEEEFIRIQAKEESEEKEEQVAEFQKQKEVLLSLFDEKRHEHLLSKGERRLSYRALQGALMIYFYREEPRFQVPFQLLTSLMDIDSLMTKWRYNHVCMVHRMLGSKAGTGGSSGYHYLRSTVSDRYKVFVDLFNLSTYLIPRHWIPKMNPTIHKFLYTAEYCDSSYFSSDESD

Structure (SMILES) | IC50 (IDO1 in SKOV3 cells) [nM] | IC50 [1] [nM] | IC50 [2] [nM]
Cc1ccc(-n2cc(C(O)c3c(C4CC4)ccc4cncn34)nn2)cc1 (racemic) [Example 5, rac-(6-Cyclopropyl-imidazo[1,5-a]pyridin-5-yl)-(1-p-tolyl-1H-[1,2,3]triazol-4-yl)-methanol] | 53.7 | 4.83 | > 10200
COC(=O)Nc1ccc(-n2cc(C(O)c3c(C4CC4)ccc4cncn34)nn2)cc1 (racemic) [Example 6, rac-(4-{4-[(6-Cyclopropyl-imidazo[1,5-a]pyridin-5-yl)-hydroxy-methyl]-[1,2,3]triazol-1-yl}-phenylycarbamic acid methyl ester] | 11.8 | 9.14 | > 10200
Oc1ccc(-n2cc(C(O)c3c(C4CC4)ccc4cncn34)nn2)cc1Cl (racemic) [Example 7, rac-2-Chloro-4-{4-[(6-cyclopropyl-imidazo[1,5-a]pyridin-5-yl)-hydroxy-methyl]-[1,2,3]triazol-1-yl}-phenol] | 6.12 | 3.77 | > 10200
COc1ccc(-n2cc(C(O)c3c(C4CC4)ccc4cncn34)nn2)cc1Cl (racemic) [Example 8, rac-[1-(3-Chloro-4-methoxy-phenyl)-1H-[1,2,3]triazol-4-yl]-(6-cyclopropyl-imidazo[1,5-a]pyridin-5-yl)-methanol] | 8.8 | 7.41 | > 10200
CCOc1ccc(-n2cc(C(O)c3c(C4CC4)ccc4cncn34)nn2)cn1 (racemic) [Example 9, rac-(6-Cyclopropyl-imidazo[1,5-a]pyridin-5-yl)-[1-(6-ethoxy-pyridin-3-yl)-1H-[1,2,3]triazol-4-yl]-methanol] | 31.2 | 5.43 | > 10200
COC(=O)Nc1ccc(-n2cc(C(O)c3c(C4CC4)ncc4cncn34)nn2)cc1 (racemic) [Example 12, rac-(4-{4-[(6-Cyclopropyl-imidazo[1,5-a]pyrazin-5-yl)-hydroxy-methyl]-[1,2,3]triazol-1-yl}-phenyl)-carbamic acid methyl ester] | 73.9 | 21.5 | > 10200
Oc1ccc(-n2cc(C(O)c3c(C4CC4)ncc4cncn34)nn2)cc1 (racemic) [Example 15, rac-4-{4-[(6-Cyclopropyl-imidazo[1,5-a]pyrazin-5-yl)-hydroxy-methyl]-[1,2,3]triazol-1-yl}-phenol] | 208 | 13.1 | 9610
CC(C)(O)COc1ccc(-n2cc(C(O)c3c(C4CC4)ncc4cncn34)nn2)cc1 (racemic) [Example 18, rac-1-(4-{4-[(6-Cyclopropyl-imidazo[1,5-a]pyrazin-5-yl)-hydroxy-methyl]-[1,2,3]triazol-1-yl}-phenoxy)-2-methyl-propan-2-ol] | 140 | 33.2 | > 10200

More lines, in order of falling IC50 (IDO1 in SKOV3 cells), values ahead:

IC50 (IDO1 in SKOV3 cells) [nM] | IC50 [1] [nM] | IC50 [2] [nM] | Structure (SMILES)
326 | 27.2 | > 10200 | CCOc1ccc(-n2cc(C(O)c3c(C4CC4)ncc4cncn34)nn2)cn1 (racemic) [Example 13, rac-(6-Cyclopropyl-imidazo[1,5-a]pyrazin-5-yl)-[1-(6-ethoxy-pyridin-3-yl)-1H-[1,2,3]triazol-4-yl]-methanol]
172 | 20.4 | > 10200 | COc1ccc(-n2cc(C(O)c3c(C4CC4)ncc4cncn34)nn2)cc1 (racemic) [Example 17, rac-(6-Cyclopropyl-imidazo[1,5-a]pyrazin-5-yl)-[1-(4-methoxy-phenyl)-1H-[1,2,3]triazol-4-yl]-methanol]
94.6 | 33.2 | > 10200 | OC(c1cn(-c2ccc(OCC3(F)COC3)cc2)nn1)c1c(C2CC2)ncc2cncn12 (racemic) [Example 16, rac-(6-Cyclopropyl-imidazo[1,5-a]pyrazin-5-yl)-{1-[4-(3-fluoro-oxetan-3-ylmethoxy)-phenyl]-1H-[1,2,3]triazol-4-yl}-methanol]
37.1 | 12.5 | > 10200 | COc1ccc(-n2cc(C(O)c3c(C4CC4)ncc4cncn34)nn2)cc1Cl (racemic) [Example 11, rac-[1-(3-Chloro-4-methoxy-phenyl)-1H-[1,2,3]triazol-4-yl]-(6-cyclopropyl-imidazo[1,5-a]pyrazin-5-yl)-methanol]
34.6 | 5.05 | > 10200 | Oc1ccc(-n2cc(C(O)c3c(C4CC4)ccc4cncn34)nn2)cc1 (racemic) [Example 14, rac-4-{4-[(6-Cyclopropyl-imidazo[1,5-a]pyridin-5-yl)-hydroxy-methyl]-[1,2,3]triazol-1-yl}-phenol]
25.4 | 9.6 | > 10200 | Oc1ccc(-n2cc(C(O)c3c(C4CC4)ncc4cncn34)nn2)cc1Cl (racemic) [Example 10, rac-2-Chloro-4-{4-[(6-cyclopropyl-imidazo[1,5-a]pyrazin-5-yl)-hydroxy-methyl]-[1,2,3]triazol-1-yl}-phenol]
